Series [1] can be described thus: Oral bioavailability in C57 mouse. It is filed as ADME, organism-based. The settings on record: in vivo.
Series [2] is described as follows: Plasma clearance in C57 mouse. In kind it is ADME, organism-based.
Series [3] is described as follows: Volume of distribution at steady state in C57 mouse. In kind it is ADME, organism-based. The note with it: in vivo, read-out: Vdss.
Series [4] in a line: Half life in C57 mouse. In kind it is ADME, organism-based. The settings on record: in vivo.
Series [5] is described as follows: Apparent permeability from apical to basolateral side of human Caco2 cells. The settings on record: Caco-2, read-out: permeability. In kind it is ADME, cell-based. (In general: Caco-2 cells form a polarised layer with tight junctions and transporters.)
Series [6] can be described thus: Apparent permeability from basolateral to apical side of human Caco2 cells. In kind it is ADME, cell-based. The note with it: Caco-2, read-out: permeability.
The subject of series [7] is Liver microsomes. Nature of the series: Intrinsic clearance in human liver microsomes assessed per mg of protein. It is filed as ADME, Microsome.
Series [8] has as its system Liver microsomes. Nature of the series: Intrinsic clearance in rat liver microsomes assessed per mg of protein. In kind it is ADME, Microsome. (Liver microsomes are a subcellular fraction often used to study metabolism.)
Series [9] is described as follows: Intrinsic clearance in mouse liver microsomes assessed per mg of protein. It is filed as ADME, Microsome.
The test system of series [10] is Hepatocyte. Nature of the series: Intrinsic clearance in rat hepatocytes assessed per 1 x 10^6 cells. It is filed as ADME, cell-based, Liver.
Series [11] has as its system Hepatocyte. Nature of the series: Intrinsic clearance in human hepatocytes assessed per 1 x 10^6 cells. In kind it is ADME, cell-based, Liver.

On to `Nc1nccc2c(S(=O)(=O)N3CCCNCC3)cccc12`, for which the bioavailability – broadly, the share of a dose that reaches the circulation, judged against a reference dose that is usually intravenous – in series [1] was 57%. Further, in series [2], the clearance is 34 mL/min/kg. In addition, the Vd in [3] turned out to be 2.4 L/kg. For the same molecule, the half-life (in general, the time needed for the level to fall by half in the phase considered) in series [4] is 45 min.
The molecule `Nc1nccc2cc(O[C@H]3CCCNC3)ccc12` gave a bioavailability in [1] greater than 75%.
Take `O=c1[nH]ccc2cc(O[C@H]3CCCNC3)ccc12`: the Papp A→B in series [5] is 14.3 ×10⁻⁶ cm/s. Also, the Papp B→A in series [6] was determined as 11.2 ×10⁻⁶ cm/s. The clearance in series [7] is less than 12 µL/min/mg; in series [8], 24 µL/min/mg; in series [9], 17 µL/min/mg; in [10], less than 6 µL/min/1e6 cells; in [11], 2 µL/min/1e6 cells.
For the molecule `c1ccc(CN2CCC[C@H](Oc3ccc4cnccc4c3)C2)cc1`, the Papp A→B in [5] was 11.6 ×10⁻⁶ cm/s. For the same molecule, the Papp B→A in [6] amounted to 17.6 ×10⁻⁶ cm/s. In addition, in [10], the clearance was found to be 21 µL/min/1e6 cells.

(Values after ChEMBL document CHEMBL1667835, “Optimisation of 6-substituted isoquinolin-1-amine based ROCK-I inhibitors” (Bioorg Med Chem Lett, 2011).)
